In assay [1] the test system is T1, DyP1 (OFU1; recombinant DyP1 from mangrove soils).
T1 construct: codon-optimized synthetic cDNA from environmental cDNA capture; secreted from Pichia pastoris X33 (pPICZalphaA), C-terminal His6 tag; expected 55 kDa, about 70 kDa glycosylated on SDS-PAGE
The assay is described as follows: dye decolorization at […] nm, Michaelis-Menten fit. Type of assay: biochemical. As to conditions: H2O2 0.25 mM co-substrate; 100 mM citrate-phosphate pH 2.6; 30 °C; read-out: Parameters / Km.

Assay [2] deals with DyP1 (OFU1; recombinant DyP1 from mangrove soils). As to conditions: read-out: Parameters / Km; H2O2 0.25 mM co-substrate; 100 mM citrate-phosphate pH 3; 30 °C.

Structures are written as SMILES. Where two headings read alike, the source gives them in different places.

With `Nc1c(S(=O)(=O)O)cc(Nc2cccc(S(=O)(=O)CCOS(=O)(=O)O)c2)c2c1C(=O)c1ccccc1C2=O` [RB19], in assay [1], the Km was determined as 1500 ± 878 µM. Consider `CCn1c(=NN=c2sc3cc(S(=O)(=O)O)ccc3n2CC)sc2cc(S(=O)(=O)O)ccc21` [ABTS], for which, in assay [2], the Km is 651 ± 81 µM.
